Reference: patent US20230398140A1, “OCULAR-TENSION-INCREASING AGENT CAPABLE OF BEING DEPRIVED OF DRUG ACTIVITY BY TEMPERATURE CONTROL” (UNIVERSITY OF YAMANASHI, priority 2020, published 2023)

Test system: White house rabbits
Settings: rabbit, in vivo

cloudiness of eyeball immediately after administration: became cloudy
Substance: poly(2-propyl-2-oxazoline) [POx]
cloudiness of eyeball after 24 hours: deposited on the iris and lens surface with the passage of time and remained as a white sediment
